Measurements reported in ChEMBL document CHEMBL1201862, “PubChem BioAssay data set” (2004).
One block for each molecule: values may come before it. Calls of active or inactive are those of the source.

Tests used:
[1] = target: T1, Corticotropin-releasing factor receptor 2/Corticotropin-releasing factor-binding protein (Homo sapiens, UniProt P24387+Q13324); experiment: Dose Response confirmation of uHTS hits for small molecule antagonists of the CRF-binding protein and CRF-R2 receptor complex.; assay type: functional; settings: read-out: IC50_Mean
T1 sequence (Q13324 whole entry): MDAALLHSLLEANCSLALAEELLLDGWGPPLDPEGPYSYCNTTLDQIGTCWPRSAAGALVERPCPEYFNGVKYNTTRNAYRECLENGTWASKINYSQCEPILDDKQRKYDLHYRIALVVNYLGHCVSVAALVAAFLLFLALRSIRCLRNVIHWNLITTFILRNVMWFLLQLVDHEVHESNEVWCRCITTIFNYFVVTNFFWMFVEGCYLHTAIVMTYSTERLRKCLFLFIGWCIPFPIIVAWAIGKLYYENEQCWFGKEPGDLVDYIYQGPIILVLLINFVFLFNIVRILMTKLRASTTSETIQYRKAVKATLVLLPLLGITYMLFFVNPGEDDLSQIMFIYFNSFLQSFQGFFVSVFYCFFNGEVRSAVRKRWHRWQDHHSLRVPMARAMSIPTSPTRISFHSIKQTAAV
T1 sequence (P24387 whole entry): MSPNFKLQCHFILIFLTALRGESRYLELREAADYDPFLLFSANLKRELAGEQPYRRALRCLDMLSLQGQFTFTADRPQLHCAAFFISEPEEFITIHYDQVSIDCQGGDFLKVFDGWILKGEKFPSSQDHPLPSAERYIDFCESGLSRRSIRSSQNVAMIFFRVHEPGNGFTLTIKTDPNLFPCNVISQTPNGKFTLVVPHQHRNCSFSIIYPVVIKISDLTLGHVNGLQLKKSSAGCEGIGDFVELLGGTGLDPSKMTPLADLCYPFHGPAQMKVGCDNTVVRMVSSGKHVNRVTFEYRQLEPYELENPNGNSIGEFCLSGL

[2] = target: T1, Corticotropin-releasing factor receptor 2/Corticotropin-releasing factor-binding protein; experiment: activators of CRF receptor 2 with binding protein – uHTS hits, confirmation (AID 602473); assay type: functional; settings: read-out: EC50_Mean
H9c2 = experiment: cells; assay type: functional, cell-based; settings: Rattus norvegicus, H9c2, Myocardium;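 further: confirmatory concentration-response retest of ultra-high-throughput screening hits for modulation of myocardial damage; cell death induced by hydrogen peroxide oxidative stress; compound pretreatment for 60 min then peroxide exposure for 2 h; potency is for protecting the cells against peroxide damage rather than for killing them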
[3] = viability of uninfected HEp-2 cells – cell-based, HTS, cytotoxicity control for RSV inhibitor project, dose response (AID 2410); assay type: functional; settings: human respiratory syncytial virus
[4] = P. falciparum Dd2 growth inhibitors, dose response, SYBR Green, cherry-picked samples (AID 1159567); assay type: functional, cell-based
INS1 = experiment: INS-1E survival protection against cytokine death – cell-based, luminescence, retest, dose response (AID 449756); assay type: functional; settings: Rattus norvegicus;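 further: cell death triggered by IL-1 beta plus TNF-alpha plus IFN-gamma mixture; protective hits raise ATP signal compared with cytokine alone wells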
[5] = target: FAD-linked sulfhydryl oxidase ALR (Homo sapiens, UniProt P55789); experiment: ALR-catalysed DTT oxidation blockers – biochemical, H2O2 detection, luminescence, cherry-pick, dose response (AID 493248)
FAD-linked sulfhydryl oxidase ALR, sequence (P55789 whole entry): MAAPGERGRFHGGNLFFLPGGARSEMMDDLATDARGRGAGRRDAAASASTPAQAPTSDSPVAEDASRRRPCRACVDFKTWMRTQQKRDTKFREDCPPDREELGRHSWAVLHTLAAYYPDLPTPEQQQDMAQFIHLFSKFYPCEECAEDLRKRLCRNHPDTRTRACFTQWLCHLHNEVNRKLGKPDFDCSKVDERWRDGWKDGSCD

[6] = NIH-3T3 fibroblast cytotoxicity, dose response, cytotoxicity control, cell-based, fluorescence, Alamar Blue, secondary assay (AID 2327); assay type: functional;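 further: NIH-3T3 mouse fibroblasts cultured with fluconazole at 8 µg/mL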
[7] = fluconazole-exposed Candida albicans growth modulators – fluorescence, retest, confirmation (AID 2467); assay type: functional, cell-based
Cytochrome P450 2C19 = Cytochrome P450 2C19 (Homo sapiens, UniProt P33261); experiment: Cytochrome panel assay with activity outcomes. Panel member name: p450-cyp2c19 Compounds with AC50 equal or less than 10 uM are considered active; assay type: functional; settings: read-out: AC50
Cytochrome P450 2C19, sequence (P33261 whole entry): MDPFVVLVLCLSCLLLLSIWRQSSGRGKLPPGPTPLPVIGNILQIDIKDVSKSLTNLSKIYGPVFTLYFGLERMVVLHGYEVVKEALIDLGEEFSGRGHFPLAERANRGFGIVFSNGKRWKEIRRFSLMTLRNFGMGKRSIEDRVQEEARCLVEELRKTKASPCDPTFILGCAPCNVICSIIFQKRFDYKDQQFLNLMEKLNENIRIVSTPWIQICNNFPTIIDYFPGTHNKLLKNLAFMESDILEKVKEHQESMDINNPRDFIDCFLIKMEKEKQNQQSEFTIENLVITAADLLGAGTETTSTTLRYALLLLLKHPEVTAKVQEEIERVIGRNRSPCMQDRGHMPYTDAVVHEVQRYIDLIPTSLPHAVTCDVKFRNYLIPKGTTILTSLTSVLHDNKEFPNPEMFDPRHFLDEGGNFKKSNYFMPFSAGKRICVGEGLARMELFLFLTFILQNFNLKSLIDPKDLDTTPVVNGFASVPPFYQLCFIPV

Cytochrome P450 2D6 = Cytochrome P450 2D6 (Homo sapiens, UniProt P10635);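 further: CYP2D6 member of a cytochrome P450 panel assay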
Cytochrome P450 2D6, sequence (P10635 whole entry): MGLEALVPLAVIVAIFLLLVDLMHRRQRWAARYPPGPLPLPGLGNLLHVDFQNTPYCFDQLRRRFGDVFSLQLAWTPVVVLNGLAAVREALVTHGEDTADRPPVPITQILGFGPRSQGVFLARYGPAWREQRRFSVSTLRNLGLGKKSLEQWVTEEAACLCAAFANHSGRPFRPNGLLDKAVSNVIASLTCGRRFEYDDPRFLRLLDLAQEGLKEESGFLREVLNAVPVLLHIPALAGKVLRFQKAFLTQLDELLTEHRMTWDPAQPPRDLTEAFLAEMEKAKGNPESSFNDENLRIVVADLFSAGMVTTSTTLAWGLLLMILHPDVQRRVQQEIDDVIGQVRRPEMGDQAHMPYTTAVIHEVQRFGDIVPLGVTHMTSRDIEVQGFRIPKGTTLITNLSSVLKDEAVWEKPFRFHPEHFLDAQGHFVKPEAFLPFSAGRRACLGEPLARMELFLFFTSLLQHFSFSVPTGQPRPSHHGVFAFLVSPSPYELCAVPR

Cytochrome P450 1A2 = target: T2, Cytochrome P450 1A2 (Homo sapiens, UniProt P05177);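 further: PubChem cytochrome P450 panel assay, CYP1A2 panel member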
T2 sequence (P05177 whole entry): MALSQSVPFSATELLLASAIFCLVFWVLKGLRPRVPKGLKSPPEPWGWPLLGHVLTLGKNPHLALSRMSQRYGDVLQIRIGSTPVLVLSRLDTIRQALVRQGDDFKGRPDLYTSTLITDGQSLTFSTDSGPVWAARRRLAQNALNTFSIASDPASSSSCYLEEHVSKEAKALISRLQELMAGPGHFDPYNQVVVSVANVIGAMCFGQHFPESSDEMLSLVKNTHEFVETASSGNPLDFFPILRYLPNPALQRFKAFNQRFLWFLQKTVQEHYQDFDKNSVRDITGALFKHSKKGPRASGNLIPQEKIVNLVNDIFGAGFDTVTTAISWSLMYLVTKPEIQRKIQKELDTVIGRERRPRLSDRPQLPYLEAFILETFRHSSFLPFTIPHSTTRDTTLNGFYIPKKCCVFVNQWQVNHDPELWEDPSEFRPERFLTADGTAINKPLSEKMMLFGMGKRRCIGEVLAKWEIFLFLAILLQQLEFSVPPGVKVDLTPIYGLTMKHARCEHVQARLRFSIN

Cytochrome P450 3A4 = Cytochrome P450 3A4 (Homo sapiens, UniProt P08684);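 further: CYP3A4 tested as one member of a cytochrome P450 panel screen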
Cytochrome P450 3A4, sequence (P08684 whole entry): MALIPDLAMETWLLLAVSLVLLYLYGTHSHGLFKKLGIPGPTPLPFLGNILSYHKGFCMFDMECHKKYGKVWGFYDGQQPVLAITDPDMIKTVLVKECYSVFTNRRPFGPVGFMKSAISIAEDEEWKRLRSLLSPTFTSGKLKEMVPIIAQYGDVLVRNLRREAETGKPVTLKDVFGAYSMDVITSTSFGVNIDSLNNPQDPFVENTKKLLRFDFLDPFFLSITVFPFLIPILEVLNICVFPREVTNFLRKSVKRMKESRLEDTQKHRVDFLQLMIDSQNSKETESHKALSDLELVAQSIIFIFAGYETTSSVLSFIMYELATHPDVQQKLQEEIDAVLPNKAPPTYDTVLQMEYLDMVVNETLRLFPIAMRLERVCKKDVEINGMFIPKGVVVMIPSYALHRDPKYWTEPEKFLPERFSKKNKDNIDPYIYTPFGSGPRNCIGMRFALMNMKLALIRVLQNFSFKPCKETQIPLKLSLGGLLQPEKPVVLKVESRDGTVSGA

Cytochrome P450 2C9 = Cytochrome P450 2C9 (Homo sapiens, UniProt P11712)
Cytochrome P450 2C9, sequence (P11712 whole entry): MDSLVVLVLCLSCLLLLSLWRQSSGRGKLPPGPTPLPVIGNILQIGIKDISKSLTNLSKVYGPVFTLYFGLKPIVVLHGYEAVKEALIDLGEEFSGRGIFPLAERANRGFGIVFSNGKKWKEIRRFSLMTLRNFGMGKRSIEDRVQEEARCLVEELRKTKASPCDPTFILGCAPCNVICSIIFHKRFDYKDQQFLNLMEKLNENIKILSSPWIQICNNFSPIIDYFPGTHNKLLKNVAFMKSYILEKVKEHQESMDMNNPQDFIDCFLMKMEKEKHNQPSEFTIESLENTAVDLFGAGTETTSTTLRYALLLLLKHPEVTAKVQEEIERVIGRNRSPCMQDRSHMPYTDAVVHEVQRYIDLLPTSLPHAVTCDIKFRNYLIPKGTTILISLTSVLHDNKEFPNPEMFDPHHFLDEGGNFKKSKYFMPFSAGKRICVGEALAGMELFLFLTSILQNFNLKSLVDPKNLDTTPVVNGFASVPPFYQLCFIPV

[8] = target: T3, Rac GTPase-activating protein 1 (Homo sapiens, UniProt Q9H0H5); experiment: blockers of MgcRacGAP-driven Rac1 GTP hydrolysis – biochemical, ADP Hunter fluorescence, primary and confirmatory, confirmation (AID 624330); assay type: functional
T3 sequence (Q9H0H5 whole entry): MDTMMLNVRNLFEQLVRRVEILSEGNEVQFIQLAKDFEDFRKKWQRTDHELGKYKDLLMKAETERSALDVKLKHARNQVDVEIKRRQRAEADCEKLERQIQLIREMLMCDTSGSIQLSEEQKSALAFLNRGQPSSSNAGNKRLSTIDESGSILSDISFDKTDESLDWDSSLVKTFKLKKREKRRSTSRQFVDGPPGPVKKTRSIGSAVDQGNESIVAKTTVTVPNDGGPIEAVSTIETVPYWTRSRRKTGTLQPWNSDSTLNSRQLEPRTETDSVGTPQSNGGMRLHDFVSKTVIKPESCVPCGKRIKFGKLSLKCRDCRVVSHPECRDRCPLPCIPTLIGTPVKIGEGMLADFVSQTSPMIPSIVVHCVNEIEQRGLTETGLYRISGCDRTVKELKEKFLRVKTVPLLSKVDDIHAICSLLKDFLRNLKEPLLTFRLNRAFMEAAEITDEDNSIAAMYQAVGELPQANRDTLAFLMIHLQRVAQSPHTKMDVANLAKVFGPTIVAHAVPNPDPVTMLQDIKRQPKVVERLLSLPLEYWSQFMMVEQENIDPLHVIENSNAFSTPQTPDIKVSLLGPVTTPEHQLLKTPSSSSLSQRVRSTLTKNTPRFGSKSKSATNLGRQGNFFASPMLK

IC50 [1]: 15.4 µM (active)
EC50 [2]: > 53 µM (inactive)
SMILES: COC(=O)C(F)(F)Sc1c(C)[nH]c2ccccc12

SMILES: N=C(NNS(=O)(=O)c1ccccc1)c1ccccn1
IC50 (H9c2): 23.5 µM (active)

SMILES: COC(=O)c1cc(C(=O)OCC(=O)N2c3ccccc3NC(=O)C2(C)C)cc([N+](=O)[O-])c1
IC50 (H9c2): 10.8 µM (active)

SMILES: O=C(N(c1ccccc1)c1ccccc1)N(c1ccccc1)c1ccccc1
CC50 [3]: 17 µM (active)

SMILES: CC(=O)C1=C(C)NC(SCC(=O)c2cc(Cl)ccc2Cl)=C(C#N)C1c1ccco1 (stereo not given)
CC50 [3]: 14.2 µM (active)

SMILES: Cc1cc(Nc2ccccc2C(=O)O)nc2nc3ccccc3c(=O)n12
IC50 (H9c2): 14.2 µM (active)

SMILES: COc1ccc(Cl)cc1NC(=O)CN(C)C(=O)Cc1nnc(O)c2ccccc12
IC50 (H9c2): > 79 µM (inactive)

SMILES: O=C(CCCN1C(=O)c2cccc3cccc(c23)C1=O)N1CCN(c2ccc(F)cc2)CC1
CC50 [3]: 46.2 µM (active)

IC50 [1]: > 47.1 µM (inactive)
EC50 [2]: > 53 µM (inactive)
SMILES: Cc1ccc(S(=O)(=O)NC2=NCN(C3CCN(Cc4ccccc4)CC3)CN2)cc1

SMILES: CCOC(=O)c1cccc(NC(=O)CSc2nc3ccccc3c(=O)n2CCOC)c1
IC50 (H9c2): > 79 µM (inactive)

SMILES: Cc1ccc(C(=O)OCC(=O)Nc2sccc2C(N)=O)cc1NC(=O)c1ccco1
IC50 (H9c2): > 79 µM (inactive)

SMILES: COc1ccc(/N=C/c2cc(Cl)ccc2O)cc1Cl
IC50 (H9c2): 17.5 µM (active)

IC50 [1]: > 47.1 µM (inactive)
EC50 [2]: > 53 µM (inactive)
SMILES: COc1ccccc1NC(=O)CN1C(=O)CCS(=O)(=O)c2ccccc21

SMILES: FC(F)(F)c1nnc2ccc(N3CCCC3)nn12
IC50 (H9c2): 39.7 µM (inactive)

SMILES: CO[C@H]1CN(C)C(=O)c2cc(NC(=O)C3CC3)ccc2OC[C@H](C)N(Cc2cc(F)ccc2F)C[C@@H]1C
AC50 [4]: 6.44 µM (active)

SMILES: CC[C@H](C)[C@@H](C(=O)NCCCCCCCCCCC(=O)N1CCN(C(=O)OC(C)(C)C)CC1)n1cc(CCCCCNC(=O)OC(C)(C)C)nn1
AC50 (INS1): 4.08 µM (active)

IC50 [1]: > 47.1 µM (inactive)
EC50 [2]: > 53 µM (inactive)
SMILES: CC1CCc2c(C(=O)Nc3ccccn3)csc2C1 (stereo not given)

IC50 [1]: > 47.1 µM (inactive)
EC50 [2]: > 53 µM (inactive)
SMILES: O=C(Cc1c(O)c2ccccc2[nH]c1=O)OC1CCCCC1

SMILES: O=S(=O)(c1ccc(F)cc1)N1CCC(c2nc(O)c3nnn(Cc4ccc5c(c4)OCCO5)c3n2)CC1
CC50 [3]: 19.6 µM (active)

AC50 [5]: 1.41 µM (active)
SMILES: Cc1cc(Nc2ccccc2)n(-c2ccc(C(=O)O)cc2)n1

SMILES: CCc1nn(CCCC(=O)NCc2ccc(C)cc2)c(=O)c2cc3occc3n12
EC50 [6]: > 160 µM (inconclusive)
EC50 [7]: > 38 µM (not active)

AC50 [5]: 4.82 µM (active)
SMILES: O=C1N=C(NO)S/C1=C\c1ccccc1-n1cccn1

SMILES: Nc1nc(Cc2ccccc2)nc(Cc2ccccc2)c1-c1ccccc1
AC50 (Cytochrome P450 2C19): 6.31 µM (inconclusive)
AC50 (Cytochrome P450 2D6): 3.16 µM (inconclusive)
AC50 (Cytochrome P450 1A2): 1 µM (inconclusive)
AC50 (Cytochrome P450 3A4): 3.16 µM (inconclusive)
AC50 (Cytochrome P450 2C9): 3.16 µM (inconclusive)

AC50 [5]: 1.2 µM (active)
SMILES: COc1ccc(N(C)S(=O)(=O)c2cccc(C(=O)Nc3nc(C)cs3)c2)cc1

SMILES: COc1cccc(C(=O)Nc2c(C(N)=O)oc3ccccc23)c1
IC50 (H9c2): > 79 µM (inactive)

SMILES: O=C(COc1cccc2c1CCNC2=O)Nc1ccc(Cl)cc1
IC50 (H9c2): 11.6 µM (active)

AC50 [5]: 5.05 µM (active)
SMILES: CCN(CC)c1ccc(NC(=O)C2=CCN(S(=O)(=O)c3ccc(F)cc3)CC2)c(C)c1

SMILES: CN1c2ccc(C3=CCCCC3)cc2[C@H]2[C@H](CCN2C(=O)C2CC2)[C@@H]1CO
AC50 [4]: 0.964 µM (active)

SMILES: CN(C(=O)CSc1nnc(-c2ccco2)o1)C1CCCCC1
EC50 [6]: > 160 µM (inactive)
EC50 [7]: 5.16 µM (active)

SMILES: Cc1onc(-c2ccccc2)c1C(=O)OCC(=O)Nc1ccc(C#N)cc1
CC50 [3]: 8 µM (active)

AC50 [5]: < 0.005 µM (active)
SMILES: COc1ccccc1NC(=O)c1c(NC(=O)CCC(=O)O)sc2c1CCCCC2

AC50 [5]: 1.83 µM (active)
SMILES: O=C(Nc1cccs1)NC1CCCC1

IC50 [1]: > 47.1 µM (inactive)
EC50 [2]: > 53 µM (inactive)
SMILES: CN1CCN(CC(=O)Nc2cc(N(C)C)nc3ccccc23)CC1

SMILES: O=C(Nc1ccc(C(=O)N2CCCc3ccccc32)cc1)c1cccs1
CC50 [3]: 35.4 µM (active)

AC50 [5]: > 100 µM (inactive)
SMILES: CCCCC(NC(=O)Cc1c(C)c2cc3c(C)c(C)oc3c(C)c2oc1=O)C(=O)O (stereo not given)

SMILES: Oc1c(Br)cc(Br)cc1/C=N/c1ccc2c(c1)OCCO2
IC50 (H9c2): 17.6 µM (active)
IC50 [8]: 119 µM (active)

AC50 [5]: 26.2 µM (active)
SMILES: Cc1ccc2[nH]cc(CCNC(=O)c3cccs3)c2c1

SMILES: CN1/C(=C\C(=O)C[n+]2ccc(C(=O)c3ccccc3)cc2)C(C)(C)c2ccccc21
EC50 [6]: > 150 µM (inactive)
EC50 [7]: 3.12 µM (active)
AC50 (INS1): 2.42 µM (active)

SMILES: C[C@H](CO)N1C[C@H](C)[C@@H](CN(C)C(=O)[C@H](C)c2ccccc2)OCc2ccccc2-c2c(n(C)c3ccccc23)C1=O
AC50 [4]: 4.07 µM (active)

AC50 [5]: > 100 µM (inactive)
SMILES: COC(=O)[C@H](Cc1ccccc1)NC(=O)N1CCN(c2ccc(F)cc2)CC1

SMILES: N#Cc1ccc(NC(=O)CN2C(=O)NC3(CCCCCCC3)C2=O)cc1Cl
CC50 [3]: 30.3 µM (active)

SMILES: CC(C)(C)[S@+]([O-])N1Cc2cc(C(=O)N[C@H]3CCN(Cc4ccccc4)C3)nc(-c3cccc(-c4ccncc4)c3)c2[C@@H]1CCO
AC50 [4]: 6.19 µM (active)

SMILES: Cc1cc(-n2c(SCC(=O)Nc3ccc(F)c(F)c3)nc3nnc(C)c-3c2N)ccc1Cl
AC50 (INS1): 5.57 µM (active)

SMILES: Cc1cccc(C)c1NC(=O)c1c(C)nn(-c2ccccc2)c1Cl
CC50 [3]: 42.5 µM (active)

SMILES: Cc1cc(SCC(=O)Nc2cccc(S(=O)(=O)NC3=NCCCCC3)c2)nc2ccccc12
CC50 [3]: 40.6 µM (active)

SMILES: CO[C@@H]1CN(C)C(=O)c2ccc(NC(=O)Nc3ccc(C(F)(F)F)cc3)cc2OC[C@@H](C)NC[C@@H]1C
AC50 [4]: 4.23 µM (active)

SMILES: O=C(C[n+]1ccccc1)N/N=C/c1cccs1
EC50 [6]: > 150 µM (inactive)
EC50 [7]: > 38 µM (not active)

SMILES: CCn1c(SCC(=O)Nc2cccc(C)c2)nc2ccccc2c1=O
CC50 [3]: > 50 µM (active)

SMILES: CCOc1ccc(S(=O)(=O)N(C)CCO)cc1-c1nc(O)c2c(n1)c(C(C)(C)C)nn2C
IC50 (H9c2): > 79 µM (inactive)
